Experimental data: ChEMBL document CHEMBL6127079, “Design and synthesis of spiro[pyrrolidine-3,3'-quinoline]-2,2'-dione derivatives as novel antifungal agents targeting chitin synthase” (Eur J Med Chem, 2024)
Converted amounts (≈) assume the structure as drawn.

Tests used:
[1] = tested on: Aspergillus fumigatus; experiment: Antifungal activity against Aspergillus fumigatus GIMCC 3.19 assessed as fluconazole MIC incubated for 24 hrs in presence of fluconazole by half broth dilution based checkerboard method; format: functional
[2] = tested on: Candida albicans; experiment: Synergistic antifungal activity against Candida albicans ATCC 76615 assessed as fractional inhibitory concentration index in presence of Polyoxin B incubated for 24 hrs by half broth dilution based checkerboard method; format: functional
[3] = tested on: Cryptococcus neoformans; experiment: Antifungal activity against Cryptococcus neoformans ATCC 32719 assessed as inhibition of growth incubated for 24 hrs by two-fold serial dilution method; format: functional
[4] = tested on: Aspergillus flavus; experiment: Antifungal activity against Aspergillus flavus ATCC 16870 assessed as fluconazole MIC incubated for 24 hrs in presence of fluconazole by half broth dilution based checkerboard method; format: functional
[5] = tested on: Aspergillus fumigatus; experiment: Antifungal activity against Aspergillus fumigatus GIMCC 3.19 incubated for 24 hrs by half broth dilution based checkerboard method; format: functional
[6] = tested on: Cryptococcus neoformans; experiment: Antifungal activity against Cryptococcus neoformans ATCC 32719 assessed as Polyoxin B MIC incubated for 24 hrs in presence of fluconazole by half broth dilution based checkerboard method; format: functional
[7] = tested on: Aspergillus flavus; experiment: Antifungal activity against fluconazole-resistant Aspergillus flavus ATCC 16870 assessed as inhibition of fungal growth incubated for 24 to 72 hrs; format: functional; settings: time 24-72 hrs
[8] = tested on: Aspergillus flavus; experiment: Antifungal activity against Aspergillus flavus ATCC 16870 assessed as Polyoxin B MIC incubated for 24 hrs in presence of fluconazole by half broth dilution based checkerboard method; format: functional
[9] = tested on: Cryptococcus neoformans; experiment: Synergistic antifungal activity against Cryptococcus neoformans ATCC 32719 assessed as fractional inhibitory concentration index in presence of Polyoxin B incubated for 24 hrs by half broth dilution based checkerboard method; format: functional
[10] = Inhibition of chitin synthase extracted from Candida tropicalis ATCC 750 using UDP-GlcNAc as substrate assessed as inhibition rate by TMB based microplate analyzer relative to control
[11] = tested on: Candida albicans; experiment: Antifungal activity against drug-resistant Candida albicans ATCC 76615 assessed as inhibition of cell wall synthesis in presence of sorbitol incubated for 24 hrs; format: functional
[12] = tested on: Aspergillus fumigatus; experiment: Antifungal activity against Aspergillus fumigatus GIMCC 3.19 assessed as inhibition of growth incubated for 24 hrs by two-fold serial dilution method; format: functional
[13] = tested on: Candida albicans; experiment: Antifungal activity against micafungin-resistant Candida albicans ATCC 76615 assessed as inhibition of fungal growth incubated for 24 to 72 hrs; format: functional; settings: time 24-72 hrs
[14] = tested on: Aspergillus fumigatus; experiment: Synergistic antifungal activity against Aspergillus fumigatus GIMCC 3.19 assessed as fractional inhibitory concentration index in presence of fluconazole incubated for 24 hrs by half broth dilution based checkerboard method; format: functional
[15] = tested on: Candida albicans; experiment: Synergistic antifungal activity against Candida albicans ATCC 76615 assessed as fractional inhibitory concentration index in presence of fluconazole incubated for 24 hrs by half broth dilution based checkerboard method; format: functional
[16] = tested on: Aspergillus flavus; experiment: Synergistic antifungal activity against Aspergillus flavus ATCC 16870 assessed as fractional inhibitory concentration index in presence of fluconazole incubated for 24 hrs by half broth dilution based checkerboard method; format: functional
[17] = tested on: Aspergillus fumigatus; experiment: Antifungal activity against fluconazole-resistant Aspergillus fumigatus GIMCC 3.19 assessed as inhibition of fungal growth incubated for 24 to 72 hrs; format: functional; settings: time 24-72 hrs
[18] = tested on: Cryptococcus neoformans; experiment: Antifungal activity against Cryptococcus neoformans ATCC 32719 incubated for 24 hrs by half broth dilution based checkerboard method; format: functional
[19] = tested on: Candida albicans; experiment: Antifungal activity against Candida albicans ATCC 76615 assessed as fluconazole MIC incubated for 24 hrs in presence of fluconazole by half broth dilution based checkerboard method; format: functional
[20] = tested on: Cryptococcus neoformans; experiment: Synergistic antifungal activity against Cryptococcus neoformans ATCC 32719 assessed as fractional inhibitory concentration index in presence of fluconazole incubated for 24 hrs by half broth dilution based checkerboard method; format: functional
[21] = tested on: Aspergillus fumigatus; experiment: Antifungal activity against drug-resistant Aspergillus fumigatus GIMCC 3.19 assessed as inhibition of cell wall synthesis in presence of sorbitol incubated for 24 hrs; format: functional
[22] = tested on: Cryptococcus neoformans; experiment: Antifungal activity against Cryptococcus neoformans ATCC 32719 assessed as fluconazole MIC incubated for 24 hrs in presence of fluconazole by half broth dilution based checkerboard method; format: functional
[23] = tested on: Cryptococcus neoformans; experiment: Antifungal activity against fluconazole-resistant Cryptococcus neoformans ATCC 32719 assessed as inhibition of fungal growth incubated for 24 to 72 hrs; format: functional; settings: time 24-72 hrs
[24] = tested on: Aspergillus flavus; experiment: Antifungal activity against Aspergillus flavus ATCC 16870 incubated for 24 hrs by half broth dilution based checkerboard method; format: functional
[25] = tested on: Aspergillus flavus; experiment: Synergistic antifungal activity against Aspergillus flavus ATCC 16870 assessed as fractional inhibitory concentration index in presence of Polyoxin B incubated for 24 hrs by half broth dilution based checkerboard method; format: functional
[26] = tested on: Candida albicans; experiment: Antifungal activity against Candida albicans ATCC 76615 incubated for 24 hrs by half broth dilution based checkerboard method; format: functional
[27] = tested on: Aspergillus fumigatus; experiment: Antifungal activity against Aspergillus fumigatus GIMCC 3.19 assessed as Polyoxin B MIC incubated for 24 hrs in presence of fluconazole by half broth dilution based checkerboard method; format: functional
[28] = tested on: Aspergillus flavus; experiment: Antifungal activity against Aspergillus flavus ATCC 16870 assessed as inhibition of growth incubated for 24 hrs by two-fold serial dilution method; format: functional
[29] = tested on: Cryptococcus neoformans; experiment: Antifungal activity against drug-resistant Cryptococcus neoformans ATCC 32719 assessed as inhibition of cell wall synthesis in presence of sorbitol incubated for 24 hrs; format: functional
[30] = tested on: Aspergillus fumigatus; experiment: Synergistic antifungal activity against Aspergillus fumigatus GIMCC 3.19 assessed as fractional inhibitory concentration index in presence of Polyoxin B incubated for 24 hrs by half broth dilution based checkerboard method; format: functional
[31] = tested on: Candida albicans; experiment: Antifungal activity against fluconazole-resistant Candida albicans ATCC 76615 assessed as inhibition of fungal growth incubated for 24 to 72 hrs; format: functional; settings: time 24-72 hrs
[32] = tested on: Aspergillus flavus; experiment: Antifungal activity against drug-resistant Aspergillus flavus ATCC 16870 assessed as inhibition of cell wall synthesis in presence of sorbitol incubated for 24 hrs; format: functional
[33] = tested on: Candida tropicalis; experiment: Inhibition of chitin synthase extracted from Candida tropicalis ATCC 750 using UDP-GlcNAc as substrate assessed as inhibition rate at 300 ug/ml by TMB based microplate analyzer relative to control; settings: dose 300.0 µg/ml
[34] = tested on: Candida albicans; experiment: Antifungal activity against Candida albicans ATCC 76615 assessed as Polyoxin B MIC incubated for 24 hrs in presence of fluconazole by half broth dilution based checkerboard method; format: functional
[35] = tested on: Candida albicans; experiment: Antifungal activity against Candida albicans ATCC 76615 assessed as inhibition of growth incubated for 24 hrs by two-fold serial dilution method; format: functional

Row | Structure (SMILES) | MIC [1] [µg/mL] | fractional inhibitory concentration index (FICI) [2] | MIC [3] [µg/mL] | MIC [4] [µg/mL] | MIC [5] [µg/mL] | MIC [6] [µg/mL] | MIC [7] [µg/mL] | MIC [8] [µg/mL] | fractional inhibitory concentration index (FICI) [9] | IC50 [10] [µM] | MIC [11] [µg/mL] | MIC [12] [µg/mL] | MIC [13] [µg/mL] | fractional inhibitory concentration index (FICI) [14] | fractional inhibitory concentration index (FICI) [15] | fractional inhibitory concentration index (FICI) [16] | MIC [17] [µg/mL] | MIC [18] [µg/mL] | MIC [19] [µg/mL] | fractional inhibitory concentration index (FICI) [20] | further results
1 | O=C(CN1CCC(C(=O)Nc2ccc(Br)cc2)CC1)Nc1ccc2c(c1)NC(=O)C1(CCNC1=O)C2 (racemic) | 2 | 1 | 8 (≈ 14.4 µM) | 4 | 16 | 8 | 64 (≈ 115 µM) | 32 | 1.5 | 116 | 256 | 16 (≈ 28.9 µM) | 32 (≈ 57.7 µM) | 1 | 1 | 1.25 | 64 (≈ 115 µM) | 8 | 4 | 0.75 | MIC [21]: 512 µg/mL; MIC [22]: 2 µg/mL; MIC [23]: 32 µg/mL (≈ 57.7 µM); MIC [24]: 32 µg/mL; fractional inhibitory concentration index (FICI) [25]: 0.5; MIC [26]: 16 µg/mL; MIC [27]: 16 µg/mL; MIC [28]: 32 µg/mL (≈ 57.7 µM); MIC [29]: 128 µg/mL; fractional inhibitory concentration index (FICI) [30]: 1; MIC [31]: 32 µg/mL (≈ 57.7 µM); MIC [32]: 256 µg/mL; inhibition [33]: 63%; MIC [34]: 16 µg/mL; MIC [35]: 16 µg/mL (≈ 28.9 µM)
2 | O=C(CN1CCC(C(=O)Nc2cccc3ccccc23)CC1)Nc1ccc2c(c1)NC(=O)C1(CCNC1=O)C2 (racemic) | 2 | 0.75 | 32 (≈ 60.9 µM) | 1.5 | 8 | 32 | 64 (≈ 122 µM) | 8 | 1 | 99 | 256 | 8 (≈ 15.2 µM) | 32 (≈ 60.9 µM) | 1 | 0.75 | 0.75 | 64 (≈ 122 µM) | 2 | 1 | 1 | MIC [21]: 512 µg/mL; MIC [22]: 0.75 µg/mL; MIC [23]: 64 µg/mL (≈ 122 µM); MIC [24]: 8 µg/mL; fractional inhibitory concentration index (FICI) [25]: 2; MIC [26]: 16 µg/mL; MIC [27]: 8 µg/mL; MIC [28]: 8 µg/mL (≈ 15.2 µM); MIC [29]: 512 µg/mL; fractional inhibitory concentration index (FICI) [30]: 1.5; MIC [31]: 32 µg/mL (≈ 60.9 µM); MIC [32]: 128 µg/mL; inhibition [33]: 84%; MIC [34]: 16 µg/mL; MIC [35]: 16 µg/mL (≈ 30.4 µM)
3 | O=C(/C=C/C(=O)Nc1cccc2ccccc12)Nc1ccc2c(c1)NC(=O)C1(CCNC1=O)C2 (racemic) | 2 | 1.25 | 8 (≈ 17.6 µM) | 2 | 2 | 2 | 32 (≈ 70.4 µM) | 2 | 0.5 | 131 | 256 | 8 (≈ 17.6 µM) | 32 (≈ 70.4 µM) | 1 | 1.125 | 0.75 | 64 (≈ 141 µM) | 2 | 8 | 0.5 | MIC [21]: 128 µg/mL; MIC [22]: 2 µg/mL; MIC [23]: 32 µg/mL (≈ 70.4 µM); MIC [24]: 2 µg/mL; fractional inhibitory concentration index (FICI) [25]: 0.75; MIC [26]: 4 µg/mL; MIC [27]: 2 µg/mL; MIC [28]: 8 µg/mL (≈ 17.6 µM); MIC [29]: 128 µg/mL; fractional inhibitory concentration index (FICI) [30]: 1; MIC [31]: 32 µg/mL (≈ 70.4 µM); MIC [32]: 64 µg/mL; inhibition [33]: 79.5%; MIC [34]: 8 µg/mL; MIC [35]: 16 µg/mL (≈ 35.2 µM)
4 | O=C(/C=C/C(=O)Nc1ccc2c(c1)NC(=O)C1(CCNC1=O)C2)Nc1ccc(Br)cc1 (racemic) | 2 | 0.75 | 16 (≈ 33.1 µM) | 4 | 8 | 4 | 64 (≈ 132 µM) | 8 | 1 | 179 | 128 | 32 (≈ 66.2 µM) | 32 (≈ 66.2 µM) | 0.75 | 0.75 | 1.5 | 64 (≈ 132 µM) | 4 | 4 | 1 | MIC [21]: 256 µg/mL; MIC [22]: 4 µg/mL; MIC [23]: 32 µg/mL (≈ 66.2 µM); MIC [24]: 8 µg/mL; fractional inhibitory concentration index (FICI) [25]: 1.5; MIC [26]: 4 µg/mL; MIC [27]: 16 µg/mL; MIC [28]: 16 µg/mL (≈ 33.1 µM); MIC [29]: 256 µg/mL; fractional inhibitory concentration index (FICI) [30]: 0.75; MIC [31]: 64 µg/mL (≈ 132 µM); inhibition [33]: 72.7%; MIC [34]: 8 µg/mL; MIC [35]: 16 µg/mL (≈ 33.1 µM)
